PMC12155096 (International Journal of Molecular Sciences, 2025)
Where a name gives a salt, the structure may show the parent alone. Read-outs that look alike come from different tables or passages of the source.

Columns and labels:
[1] = molecular target: Photinus pyralis (firefly) luciferase (Photinus pyralis, UniProt P08659); experiment: biochemical; type: biochemical
human CYP1A2 [2] = molecular target: T1, human CYP1A2 (Homo sapiens, UniProt P05177); experiment: biochemical
T1 sequence (P05177 1-516): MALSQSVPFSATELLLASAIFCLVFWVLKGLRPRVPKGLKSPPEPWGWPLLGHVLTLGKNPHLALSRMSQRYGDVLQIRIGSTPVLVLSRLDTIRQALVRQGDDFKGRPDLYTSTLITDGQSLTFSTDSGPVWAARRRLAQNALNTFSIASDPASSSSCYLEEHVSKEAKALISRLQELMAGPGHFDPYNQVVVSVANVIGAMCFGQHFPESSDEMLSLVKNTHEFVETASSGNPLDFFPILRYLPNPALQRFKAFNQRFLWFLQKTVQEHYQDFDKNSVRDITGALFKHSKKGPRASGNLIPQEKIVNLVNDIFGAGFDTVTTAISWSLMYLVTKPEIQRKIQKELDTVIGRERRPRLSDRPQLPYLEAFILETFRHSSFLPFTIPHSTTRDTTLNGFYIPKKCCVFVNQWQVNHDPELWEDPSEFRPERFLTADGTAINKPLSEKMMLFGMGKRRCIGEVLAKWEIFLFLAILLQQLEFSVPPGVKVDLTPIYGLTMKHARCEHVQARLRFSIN

human CYP2C9 [3] = molecular target: T2, human CYP2C9 (Homo sapiens, UniProt P11712); experiment: biochemical
T2 sequence (P11712 whole entry): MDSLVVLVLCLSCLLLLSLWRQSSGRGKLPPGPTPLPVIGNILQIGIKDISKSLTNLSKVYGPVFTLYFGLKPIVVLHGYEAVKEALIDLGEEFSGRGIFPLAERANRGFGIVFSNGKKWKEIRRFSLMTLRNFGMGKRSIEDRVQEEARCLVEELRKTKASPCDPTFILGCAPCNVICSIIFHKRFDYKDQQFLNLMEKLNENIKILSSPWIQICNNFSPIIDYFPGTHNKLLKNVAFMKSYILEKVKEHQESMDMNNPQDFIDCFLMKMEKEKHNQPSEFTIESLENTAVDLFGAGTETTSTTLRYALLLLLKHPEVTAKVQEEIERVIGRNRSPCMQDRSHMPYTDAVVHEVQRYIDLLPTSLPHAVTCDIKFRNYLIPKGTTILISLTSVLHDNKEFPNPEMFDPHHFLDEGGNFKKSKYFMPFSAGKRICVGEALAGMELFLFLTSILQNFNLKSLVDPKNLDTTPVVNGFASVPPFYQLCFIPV

human CYP2C19 [4] = molecular target: T3, human CYP2C19 (Homo sapiens, UniProt P33261); experiment: biochemical
T3 sequence (P33261 whole entry): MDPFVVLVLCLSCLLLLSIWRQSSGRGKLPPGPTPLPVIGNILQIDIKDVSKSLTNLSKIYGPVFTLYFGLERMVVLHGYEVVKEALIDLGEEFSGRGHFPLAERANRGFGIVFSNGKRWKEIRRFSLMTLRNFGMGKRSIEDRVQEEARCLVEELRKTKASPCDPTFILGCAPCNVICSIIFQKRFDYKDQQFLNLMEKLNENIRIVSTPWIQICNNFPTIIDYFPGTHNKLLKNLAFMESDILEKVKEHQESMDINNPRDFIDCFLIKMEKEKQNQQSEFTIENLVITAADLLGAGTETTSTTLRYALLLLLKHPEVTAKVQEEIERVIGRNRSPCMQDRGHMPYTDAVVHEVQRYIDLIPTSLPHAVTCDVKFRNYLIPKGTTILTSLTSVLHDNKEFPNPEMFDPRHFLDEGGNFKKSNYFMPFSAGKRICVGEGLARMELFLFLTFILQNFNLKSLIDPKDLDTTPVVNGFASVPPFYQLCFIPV

human CYP2D6 = human CYP2D6 (Homo sapiens, UniProt P10635); experiment: biochemical; settings: for AC50: CYP2D6 AC50 (half-maximal activity concentration)
Sequence of human CYP2D6 (P10635 whole entry): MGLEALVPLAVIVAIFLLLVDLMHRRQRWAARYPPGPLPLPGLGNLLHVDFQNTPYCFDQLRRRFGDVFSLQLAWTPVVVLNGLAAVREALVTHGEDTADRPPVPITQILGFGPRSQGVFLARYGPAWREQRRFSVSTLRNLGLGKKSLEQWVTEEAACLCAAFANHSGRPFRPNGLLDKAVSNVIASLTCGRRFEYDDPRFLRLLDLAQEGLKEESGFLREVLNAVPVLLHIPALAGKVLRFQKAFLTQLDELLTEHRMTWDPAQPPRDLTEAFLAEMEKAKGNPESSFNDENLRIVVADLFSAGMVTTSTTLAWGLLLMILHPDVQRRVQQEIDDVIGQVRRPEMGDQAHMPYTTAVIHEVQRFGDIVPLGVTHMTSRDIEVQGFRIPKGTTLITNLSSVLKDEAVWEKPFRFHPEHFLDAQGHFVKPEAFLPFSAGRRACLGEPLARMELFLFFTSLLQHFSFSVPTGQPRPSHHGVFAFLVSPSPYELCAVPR

human CYP1A2 [5] = molecular target: T1, human CYP1A2
human CYP2C9 [6] = molecular target: T2, human CYP2C9
human CYP2C19 [7] = molecular target: T3, human CYP2C19
[8] = CYP1A2 IC50 (half-maximal inhibitory concentration)
[9] = CYP2C9 IC50 (half-maximal inhibitory concentration)
[10] = CYP2C19 IC50 (half-maximal inhibitory concentration)
[11] = CYP2D6 IC50 (half-maximal inhibitory concentration)

Sequence of Photinus pyralis (firefly) luciferase (P08659 whole entry): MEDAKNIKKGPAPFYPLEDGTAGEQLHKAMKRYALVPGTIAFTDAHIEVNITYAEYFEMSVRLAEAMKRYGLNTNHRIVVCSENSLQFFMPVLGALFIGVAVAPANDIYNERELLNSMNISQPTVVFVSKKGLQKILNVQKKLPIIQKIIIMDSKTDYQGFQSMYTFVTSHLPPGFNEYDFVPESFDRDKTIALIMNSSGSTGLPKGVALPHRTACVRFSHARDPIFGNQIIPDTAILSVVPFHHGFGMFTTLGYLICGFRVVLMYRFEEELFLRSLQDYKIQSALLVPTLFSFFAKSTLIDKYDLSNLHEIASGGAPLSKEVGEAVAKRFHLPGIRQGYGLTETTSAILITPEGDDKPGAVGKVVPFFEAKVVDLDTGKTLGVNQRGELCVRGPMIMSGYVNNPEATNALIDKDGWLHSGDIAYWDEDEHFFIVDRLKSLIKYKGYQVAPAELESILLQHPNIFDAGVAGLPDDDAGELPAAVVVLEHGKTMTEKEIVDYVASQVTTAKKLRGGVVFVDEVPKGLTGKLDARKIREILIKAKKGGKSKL

Structure (SMILES) | Luciferase IC50 [1] | CYP1A2 IC50 (human CYP1A2 [5]) | CYP2C9 IC50 (human CYP2C9 [6]) | IC50 (human CYP2D6; CYP2D6 IC50) | IC50 (human CYP2C19 [4]; CYP2C19 IC50) | IC50 (human CYP1A2 [2]; CYP1A2 IC50) | IC50 (human CYP2C9 [3]; CYP2C9 IC50) | further results
O=c1cc(-c2ccccc2)oc2ccccc12 [Flavone] |  |  |  |  |  |  |  | IC50 [1]: 21.6 µM; IC50 (human CYP1A2 [2]): 0.26 µM; IC50 (human CYP2C9 [3]): 14.6 µM; IC50 (human CYP2C19 [4]): 23.2 ± 7.47 µM; IC50 (human CYP2D6): 62.5 ± 38.1 µM
CCCCC(CC)CN1CN(CC(CC)CCCC)CC(C)(N)C1 (centres unmarked) [Hexetidine] | Inactive | Inactive | Inactive | 0.48 µM |  |  |  | CYP2C19 IC50 (human CYP2C19 [7]): Inactive
CN1CCCN(C(c2ccccc2)c2ccc(Cl)cc2)CC1 (centres unmarked) [Homochlorcyclizine] | Inactive | Inactive | Inactive | 0.38 µM | 26.3 µM |  |  | 
CCOC(=O)CC(SP(=S)(OC)OC)C(=O)OCC (centres unmarked) [Malathion] |  |  |  | 58.1 µM | 0.54 µM | 2.12 µM | 1.78 µM | IC50 [1]: 37 µM
Cc1cc(O)c2ccccc2c1O [Menadiol] | Inactive |  |  | 19.3 µM | 13.4 µM | 0.8 µM | 12.2 µM | 
COc1nn(CSP(=S)(OC)OC)c(=O)s1 [Methidathion] |  |  |  |  | 0.8 µM | 6.58 µM |  | IC50 [1]: 44 µM; IC50 (human CYP2C9 [3]): 6.58 µM; IC50 (human CYP2D6): 35.7 µM
COCC(=O)O[C@]1(CCN(C)CCCc2nc3ccccc3[nH]2)CCc2cc(F)ccc2[C@@H]1C(C)C [Mibefradil dihydrochloride] | Inactive | Inactive | Inactive | 0.53 µM |  |  |  | IC50 (human CYP2C19 [4]): 38.9 µM
O=C(NCCc1c[nH]c2ccccc12)c1cccnc1 [Nicotredole] |  |  |  |  |  |  |  | IC50 [1]: 35.1 µM; IC50 (human CYP1A2 [2]; [8]): 14.6 µM; IC50 (human CYP2C9 [3]; [9]): 15.1 µM; IC50 (human CYP2C19 [4]; [10]): 8.39 µM; IC50 (human CYP2D6; [11]): 31 µM
Nc1c(Cl)c(Cl)c(Cl)c(Cl)c1Cl [Pentachloroaniline] | Inactive |  |  |  | 44 µM | 0.85 µM |  | IC50 (human CYP2C9 [3]): 51.5 µM; IC50 (human CYP2D6): 75.3 µM
CCCN1C[C@H](CSC)C[C@@H]2c3cccc4[nH]cc(c34)C[C@H]21 [Pergolide methanesulfonate] | Inactive |  |  | 0.15 µM | 8.43 µM | 6.54 µM | 6.26 µM | 
c1ccc2c(c1)Nc1ccccc1S2 [Phenothiazine] |  |  |  |  |  |  |  | IC50 [1]: 58.1 µM; IC50 (human CYP1A2 [2]; [8]): 0.97 µM; IC50 (human CYP2C9 [3]; [9]): 40.4 µM; IC50 (human CYP2C19 [4]; [10]): 4.3 µM; IC50 (human CYP2D6; [11]): 30.8 µM
Cc1ccc(N(CC2=NCCN2)c2cccc(O)c2)cc1 [Phentolamine mesilate] | Inactive | Inactive | Inactive | 0.65 µM | 14.6 µM |  |  | 
CCOP(=S)(OCC)O/N=C(\C#N)c1ccccc1 [Phoxim] | Inactive |  |  |  | 0.28 µM | 0.99 µM |  | IC50 (human CYP2C9 [3]): 2.04 µM; IC50 (human CYP2D6): 22.5 µM
CN1CCC(=C2c3ccccc3CCc3sccc32)CC1 [Pizotifen] | Inactive | Inactive | Inactive | 0.96 µM | 8.71 µM |  |  | AC50 (human CYP2C19 [4]; CYP2C19 AC50 (half-maximal activity concentration)): 8.71 µM; AC50 (human CYP2D6): 0.96 µM
CCCC(C(=O)OCCN(CC)CC)(c1ccccc1)c1ccccc1 [Proadifen hydrochloride] | Inactive | Inactive |  | 0.2 µM | 19.1 µM |  | 12.1 µM | 
c1cc2ccc3cccc4ccc(c1)c2c34 [Pyrene] | Inactive |  |  | 47.1 µM | 24.3 µM | 0.64 µM | 60.5 µM | 
O=C1NCN(c2ccccc2)C12CCN(CC1COc3ccccc3O1)CC2 (centres unmarked) [Spiroxatrine] | Inactive | Inactive |  | 0.19 µM | 8.64 µM |  | 10.8 µM | 
CN1CCC(N(Cc2cccs2)c2ccccc2)CC1 [Thenalidine] | Inactive | Inactive | Inactive | 0.53 µM | 36.8 µM |  |  | AC50 (human CYP2D6): 0.53 µM
CCOC(=O)c1c(N)sc2c1CCN(Cc1ccccc1)C2 [Tinoridine] | Inactive |  |  |  |  |  |  | IC50 (human CYP1A2 [2]): 16.1 ± 1.09 µM; IC50 (human CYP2C9 [3]): 6.91 ± 5.97 µM; IC50 (human CYP2C19 [4]): 0.71 ± 0.38 µM; IC50 (human CYP2D6): 0.02 ± 0.01 µM
